Experimental data as given in PubChem BioAssay AID1918936 (Molecular Pharmacology Branch, DTP, NCI, 2023).
Values joined by “and” are separate entries in the source; they are usually repeats but may differ in a detail not shown here. Equal entries are not always repeated.

System: 349418-098-R-PDC complex spheroid viability
Test: Anticancer human tumor 349418-098-R-PDC patient-derived lung adenocarcinoma cell line growth inhibition
Conditions: for viability, T/C: stronger effect = lower value; active means viability on the fitted dose curve at most 10% of control; inactive means the rest
How it was run: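 Drug combinations with the LSD1 inhibitor iadademstat tested on tumor cells co-cultured as spheroids with endothelial cells and mesenchymal stem cells. Concentrations descended in half-log increments from clinical Cmax or 10 microM.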

[1] = curve of first compound, second compound 0.1 µM
[2] = curve of first compound, second compound 0.316 µM
[3] = curve of first compound, second compound 1 µM
[4] = curve of first compound, second compound 3.16 µM
[5] = curve of first compound, second compound 10 µM
[6] = second compound 0.1 µM, first compound 0.000316 µM
[7] = second compound 0.1 µM, first compound 0.001 µM
[8] = second compound 0.1 µM, first compound 0.00316 µM
[9] = second compound 0.1 µM, first compound 0.01 µM
[10] = second compound 0.1 µM, first compound 0.0316 µM
[11] = second compound 0.1 µM, first compound 0.1 µM
[12] = second compound 0.316 µM, first compound 0.000316 µM
[13] = second compound 0.316 µM, first compound 0.001 µM
[14] = second compound 0.316 µM, first compound 0.00316 µM
[15] = second compound 0.316 µM, first compound 0.01 µM
[16] = second compound 0.316 µM, first compound 0.0316 µM
[17] = second compound 0.316 µM, first compound 0.1 µM
[18] = second compound 1 µM, first compound 0.000316 µM
[19] = second compound 1 µM, first compound 0.001 µM
[20] = second compound 1 µM, first compound 0.00316 µM
[21] = second compound 1 µM, first compound 0.01 µM
[22] = second compound 1 µM, first compound 0.0316 µM
[23] = second compound 1 µM, first compound 0.1 µM
[24] = second compound 3.16 µM, first compound 0.000316 µM
[25] = second compound 3.16 µM, first compound 0.001 µM
[26] = second compound 3.16 µM, first compound 0.00316 µM
[27] = second compound 3.16 µM, first compound 0.01 µM
[28] = second compound 3.16 µM, first compound 0.0316 µM
[29] = second compound 3.16 µM, first compound 0.1 µM
[30] = second compound 10 µM, first compound 0.000316 µM
[31] = second compound 10 µM, first compound 0.001 µM
[32] = second compound 10 µM, first compound 0.00316 µM
[33] = second compound 10 µM, first compound 0.01 µM
[34] = second compound 10 µM, first compound 0.0316 µM
[35] = second compound 10 µM, first compound 0.1 µM
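Further: spheroids exposed to agents for seven days before readout.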
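Wherever viability, T/C is given: 100% = DMSO vehicle control wells.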

CC(C)CC(NC(=O)C(Cc1ccccc1)NC(=O)c1cnccn1)B(O)O (stereo not drawn) + NC1CCC(NC2CC2c2ccccc2)CC1
active: viability, T/C [6] 9.12% | viability, T/C [7] 2.17% | viability, T/C [8] 1.09% | viability, T/C [9] 0.81% | viability, T/C [10] 0.69% | viability, T/C [11] 0.6% | viability, T/C [12] 7.64% | viability, T/C [13] 2.21% | viability, T/C [14] 1.14% | viability, T/C [15] 0.67% | viability, T/C [16] 0.64% | viability, T/C [17] 0.58% | viability, T/C [18] 9.06% | viability, T/C [19] 1.64% | viability, T/C [20] 0.88% | viability, T/C [21] 0.64% | viability, T/C [22] 0.7% | viability, T/C [23] 0.62% | viability, T/C [24] 8.64% | viability, T/C [25] 1.66% | viability, T/C [26] 0.69% | viability, T/C [27] 0.63% | viability, T/C [28] 0.46% | viability, T/C [29] 0.51% | viability, T/C [30] 6.88% | viability, T/C [31] 1.23% | viability, T/C [32] 0.77% | viability, T/C [33] 0.45% | viability, T/C [34] 0.75% | viability, T/C [35] 0.41%
< 0.316 nM: IC50 [1] | IC50 [2] | IC50 [3] | IC50 [4] | IC50 [5]

Nc1ccn(C2OC(CO)C(O)C2(F)F)c(=O)n1 (stereo not drawn) + NC1CC1c1ccc(-c2cccc(O)c2)cc1
active: viability, T/C (second compound 0.1 µM, first compound 0.003 µM) 4.68% | viability, T/C (second compound 0.1 µM, first compound 0.00949 µM) 4.34% | viability, T/C (second compound 0.1 µM, first compound 0.03 µM) 4.35% | viability, T/C (second compound 0.1 µM, first compound 0.0949 µM) 3.93% | viability, T/C (second compound 0.1 µM, first compound 0.3 µM) 4.06% | viability, T/C (second compound 0.316 µM, first compound 0.003 µM) 3.77% | viability, T/C (second compound 0.316 µM, first compound 0.00949 µM) 3.96% | viability, T/C (second compound 0.316 µM, first compound 0.03 µM) 3.75% | viability, T/C (second compound 0.316 µM, first compound 0.0949 µM) 3.4% | viability, T/C (second compound 0.316 µM, first compound 0.3 µM) 3.31% | viability, T/C (second compound 1 µM, first compound 0.003 µM) 4.07% | viability, T/C (second compound 1 µM, first compound 0.00949 µM) 4.17% | viability, T/C (second compound 1 µM, first compound 0.03 µM) 3.99% | viability, T/C (second compound 1 µM, first compound 0.0949 µM) 3.7% | viability, T/C (second compound 1 µM, first compound 0.3 µM) 3.81% | viability, T/C (second compound 3.16 µM, first compound 0.003 µM) 4.9% | viability, T/C (second compound 3.16 µM, first compound 0.00949 µM) 4.67% | viability, T/C (second compound 3.16 µM, first compound 0.03 µM) 4.52% | viability, T/C (second compound 3.16 µM, first compound 0.0949 µM) 3.81% | viability, T/C (second compound 3.16 µM, first compound 0.3 µM) 3.95% | viability, T/C (second compound 10 µM, first compound 0.003 µM) 4.98% | viability, T/C (second compound 10 µM, first compound 0.00949 µM) 5.12% | viability, T/C (second compound 10 µM, first compound 0.03 µM) 4.52% | viability, T/C (second compound 10 µM, first compound 0.0949 µM) 4.65% | viability, T/C (second compound 10 µM, first compound 0.3 µM) 4.28%
< 0.949 nM: IC50 [1] | IC50 [2] | IC50 [3] | IC50 [4] | IC50 [5]
inactive: viability, T/C (second compound 0.1 µM, first compound 0.000949 µM) 13.3% | viability, T/C (second compound 0.316 µM, first compound 0.000949 µM) 14.1% | viability, T/C (second compound 1 µM, first compound 0.000949 µM) 15.9% | viability, T/C (second compound 3.16 µM, first compound 0.000949 µM) 18.6% | viability, T/C (second compound 10 µM, first compound 0.000949 µM) 17.2%

NC1CCC(NC2CC2c2ccccc2)CC1 (stereo not drawn)
inactive: viability, T/C (compound 0.316 µM) 106% (2×) and 102% | viability, T/C (compound 3.16 µM) 103% [middle of 25 runs]
> 10000 nM: IC50 (compound alone, run of 01/18/2022)

CC(C)CC(NC(=O)CNC(=O)c1cc(Cl)ccc1Cl)B1OC(=O)CC(CC(=O)O)(C(=O)O)O1 (stereo not drawn) + NC1CC1c1ccc(-c2cccc(O)c2)cc1
0.846 nM: IC50 [1]
0.802 nM: IC50 [3]
inactive: viability, T/C [6] 108% | viability, T/C [7] 40.2% | viability, T/C [12] 114% | viability, T/C [13] 35.6% | viability, T/C [18] 109% | viability, T/C [19] 36.1% | viability, T/C [24] 115% | viability, T/C [25] 38.4% | viability, T/C [30] 94.3% | viability, T/C [31] 22.8%
0.839 nM: IC50 [4]
0.646 nM: IC50 [5]
0.809 nM: IC50 [2]
active: viability, T/C [8] 5.55% | viability, T/C [9] 2.78% | viability, T/C [10] 1.26% | viability, T/C [11] 1.31% | viability, T/C [14] 4.64% | viability, T/C [15] 1.64% | viability, T/C [16] 1.2% | viability, T/C [17] 0.9% | viability, T/C [20] 5.1% | viability, T/C [21] 1.67% | viability, T/C [22] 1.15% | viability, T/C [23] 0.9% | viability, T/C [26] 4.76% | viability, T/C [27] 1.62% | viability, T/C [28] 0.95% | viability, T/C [29] 1.19% | viability, T/C [32] 3.46% | viability, T/C [33] 1.24% | viability, T/C [34] 0.47% | viability, T/C [35] 0.62%
